Converted amounts (≈) assume the structure as drawn.
Assays:
[1] = Rate constant in chemical and enzymatic hydrolysis to form another compound (8)*, in 80% human plasma (experiment 2); assay type: ADME, cell-free
[2] = Aqueous solubility was evaluated; assay type: physicochemical; conditions: buffer
[3] = Half-life in chemical and enzymatic hydrolysis, in buffer at pH 1.3; assay type: ADME
[4] = Half-life in chemical and enzymatic hydrolysis, in buffer at pH 7.4; assay type: ADME
[5] = Rate constant in chemical and enzymatic hydrolysis, in buffer at pH 1.3; assay type: ADME
[6] = Half-life in chemical and enzymatic hydrolysis, in 80% rat plasma; assay type: ADME
Rattus norvegicus = organism: Rattus norvegicus; test: Rate constant in chemical and enzymatic hydrolysis, in 80% rat plasma; assay type: ADME
[7] = Rate constant in chemical and enzymatic hydrolysis, in buffer at pH 7.4; assay type: ADME
[8] = Rate constant in chemical and enzymatic hydrolysis to form another compound (8)*, in 80% human plasma (experiment 1); assay type: ADME, cell-free
[9] = Partition coefficient is determined in octanol/buffer solution at pH 7.4; assay type: physicochemical
[10] = Rate constant in chemical and enzymatic hydrolysis to form L-DOPA, in 80% human plasma; assay type: ADME, cell-free

Row | K obs [1] | solubility [2] | half-life [3] | half-life [4] | K obs [5] | half-life [6] | K obs (Rattus norvegicus) | K obs [7] | K obs [8] | logD [9] | K obs [10] | SMILES
1 | 0.019 min⁻¹ | 50 µg/mL (≈ 156 µM) | 52.3 h | 1.55 h | 0.00022 min⁻¹ | 2.7 min | 0.29 min⁻¹ | 0.0075 min⁻¹ | 0.019 min⁻¹ | 2.15 | – | CC(C)(C)C(=O)Oc1ccc(C[C@@H]2NC(=O)COC2=O)cc1O
2 | – | – | – | – | – | – | – | – | – | – | 0.0047 min⁻¹ | O=C1COC(=O)[C@H](Cc2ccc(O)c(O)c2)N1

Source: ChEMBL document CHEMBL1133203, “Synthesis of L-(+)-3-(3-hydroxy-4-pivaloyloxybenzyl)-2,5-diketomorpholine as potential prodrug of L-dopa” (Bioorg Med Chem Lett, 2000)
